Assay results: US10328148B2, “Protein drug formulations and packages” (Purdue Research Foundation, priority 2010, dated 2019)

Tests used:
[1] = system: human IgG; experiment: Screening of peptides immobilized on POROS-Aldehyde resin for binding of IgG; details: for Affinity for IgG: immobilized peptides from proteolytic digests; for Selectivity of IgG binding: immobilized peptide, IgG from human plasma
Excerpt: Identifying Peptide Epitopes with Affinity for IgG. Peptide epitopes with high affinity for IgG may be derived readily from combinatorial libraries and proteolytic digests of protein mixtures. Proteolytic digests of Protein G were immobilized on POROS-Aldehyde resin by Schiff base coupling at their N-termini and the peptides screened for their ability to bind IgG from human plasma. […] In all, four peptides showing high affinity for IgG were isolated from protein G digests by this method. Similar peptides with high affinity for human IgG were also isolated and characterized from cytochrome c ([…]) (SEQ ID NO: 6) and mouse anti-human polyclonal IgG digests ([…]) (SEQ ID NO: 7) using this method. […] Without being bound by theory, it is believed herein that because ethylene glycol assists elution, some hydrophobic effects may also be involved.

[2] = system: IgG; experiment: HP-SEC of IgG with free Protein A or Protein G: complex formation and agitation-induced aggregation; type: physicochemical; details: IgG:Protein A or G ratio 1:4, RT 2 h
Procedure: Effect of proteins A and G on aggregation of IgG. High performance size exclusion chromatography (HP-SEC) is used to verify that IgG binds with Protein A or Protein G completely. 50 µL aliquots are injected to a Tosoh TSK G 13000 SWXL Gel 3000 column ([…]×7.8 mm) and separated at a flow rate of 0.5 mL/min. The mobile phase contains 50 mM potassium phosphate and 100 mM K2SO4 at pH 7.1. The relative percentage of IgG monomer and dimer are calculated in triplicate as a percentage of the total chromatographic peak area at 280 nm. Fresh IgG is incubated with free Protein A or free Protein G, respectively, at IgG:Protein A or G ratio of 1:4 at RT for 2 h before being subjected to agitation. […] Effect of agitation of protein A and protein G complexes of IgG. The prior Example 1 is repeated, subjecting the IgG+Protein A or IgG+Protein G to agitation on a shaker at room temperature for 44 h.

Substance | Affinity for IgG [1] | Selectivity of IgG binding [1] | further results
CAQCHTVEK (listed as Staphylococcus aureus) [peptide isolated from cytochrome c digest] | high affinity |  | 
GAQGHVVEK (listed as Staphylococcus aureus) [peptide isolated from mouse anti-human polyclonal IgG digests] | high affinity |  | 
Protein A: free Protein A, immunoglobulin-binding protein used as polyamino acid ligand |  |  | Complex formation with IgG by HP-SEC [2]: formation of IgG-Protein A and IgG-Protein G complexes
TVTEKPEV (listed as Staphylococcus aureus) [peptide from proteolytic digest of Protein G] |  | comparable to Protein A | Binding constant for human IgG ([1]; by HPLC methods): ~1e+06 M⁻¹
TVTEKVIDASELTPAVT (listed as Staphylococcus aureus) [peptide from proteolytic digest of Protein G] |  | comparable to Protein A | 
